pEC50, pIC50, pKd: −log10 of the molar value. A value given as a limit tells only on which side of the number the result lay.

Consider twelve molecules from ChEMBL document CHEMBL4354788, “Synthetic small-molecule RNA ligands: future prospects as therapeutic agents” (Medchemcomm, 2019).

Test [1] in a line: Binding affinity to r(CGG)12 repeat RNA (unknown origin) assessed as reduction in r(CGG)12-[…] interaction.
In test [2] the test system is Human immunodeficiency virus 1. Description: Binding affinity to HIV1 TAR RNA assessed as increase in melting temperature.
Test [3] has as its system Human immunodeficiency virus 1. In words: Antiviral activity against HIV1 infected in human MT2 cells assessed as inhibition of virus proliferation at 9 uM relative to control. Conditions: Human immunodeficiency virus 1, MT2. The class given is functional.
Test [4] is described as follows: Binding affinity to HIV1 TAR RNA. Also noted: species or system Human immunodeficiency virus 1.
Test [5] concerns Human immunodeficiency virus 1. In words: Antiviral activity against HIV1 NL4-3 infected in human MAGIC-5B cells assessed as inhibition of virus proliferation. The class given is functional, organism-based. Conditions: Human immunodeficiency virus 1, NL4-3.
The nature of test [6]: Binding affinity to r(CUG) repeat RNA (unknown origin).
Test [7] relates to Human immunodeficiency virus 1. In words: Antiviral activity against HIV1 assessed as reduction in viral replication by cell based assay. It counts as functional, organism-based.
Test [8] can be described thus: Inhibition of miR-96 hairpin RNA precursor (unknown origin).
The nature of test [9]: Binding affinity to r(CUG) repeat RNA (unknown origin) assessed as reduction in r(CUG)-MBNL1 interaction.
In test [10] the test system is Human immunodeficiency virus 1. In words: Antiviral activity against HIV1 infected in human CEM-SS cells assessed as inhibition of virus proliferation. The class given is functional, organism-based. Conditions: Human immunodeficiency virus 1, CEM-SS.
The nature of test [11]: Binding affinity to Stem loop 3 RNA in HIV1 infected in HEK293T cells assessed as reduction in SL3-Gag interaction by measuring inhibition of RNA incorporation into virions. The class given is cell-based. The note with it: Human immunodeficiency virus 1, HEK-293T.
Test [12] is described as follows: Binding affinity to HCV promoter RNA by NMR-based fragment screening assay. Further details: species or system Hepacivirus hominis.
The target of test [13] is Rev responsive element (RRE) RNA. In words: Binding affinity to HIV1 RRE RNA assessed as reduction in binding of tritiated RRE RNA to biotinylated Rev protein by high-throughput scintillation proximity assay. The class given is nucleic-acid assay, Human immunodeficiency virus 1. A general note: Scintillation proximity formats need no separation of bound from free tracer.

Test [14] deals with Human immunodeficiency virus 1. In words: Binding affinity to HIV1 TAR RNA in HIV1 NL4-3 infected human TZM-bl cells assessed as inhibition of Tat-mediated activation relative to control. Conditions: concentration not given here.
In test [15] the test system is Human immunodeficiency virus 1. Description: Antiviral activity against HIV1 NL4-3 infected human TZM-bl cells assessed as reduction in viral replication. It counts as functional, organism-based. Conditions: Human immunodeficiency virus 1, NL4-3, TZM-bl.

In general, pIC50 refers to the IC50 on a negative log10 scale, so that one unit is a factor of ten. Take `Cc1c2cc[n+](CCN3CCCCC3)cc2c(C)c2c1[nH]c1ccc(O)cc12`: the pIC50 in test [1] is 4.92.

In general, ΔTm refers to the change in melting temperature against a reference sample. As usually defined, the inhibition is the relative decrease from the control value, in per cent. As for `NC[C@H]1O[C@@H](O[C@H]2[C@H](O[C@@H]3O[C@H](Cn4cc(-c5ccc(-c6cn(C[C@H]7O[C@@H](O[C@@H]8[C@@H](O)[C@H](N)C[C@H](N)[C@H]8O[C@@H]8O[C@H](CN)[C@@H](O)[C@H](O)[C@H]8N)[C@H](O)[C@@H]7O[C@@H]7O[C@H](CN)[C@@H](O)[C@H](O)[C@H]7N)nn6)cc5)nn4)[C@@H](O[C@@H]4O[C@H](CN)[C@@H](O)[C@H](O)[C@H]4N)[C@H]3O)[C@@H](O)[C@H](N)C[C@@H]2N)[C@H](N)[C@@H](O)[C@@H]1O`, in [2], the ΔTm was less than 10 °C. Also, the inhibition at 9 µM in test [3] was 70%.

A word on the pKd: it is the negative decadic logarithm of the Kd, by convention in mol/L. As to `CC(=O)Nc1nc(-c2cccc(NC(=O)[C@H](N)Cc3c[nH]cn3)c2)cs1`, the pKd in [4] is 4.76. Also, in test [5], the pIC50 is 6.39.

Take `Nc1cccc(-c2nc3cc(-c4ccc5[nH]c(-c6cccc(N)c6)nc5c4)ccc3[nH]2)c1`: the pKd in test [6] was 7.15.

One may read the pEC50 as the negative decadic logarithm of the EC50, by convention in mol/L. As for `CN(C)CCOc1cc2c(c3ccccc13)-c1ccccc1C2=O`, in test [7] (read-out: EC50), the pEC50 was 6.08.

The molecule `CCCN(CC(=O)N(CCC)CC(=O)N(CC(N)=O)Cc1cn(CCCNC(=O)CCCOc2c(C(C)(C)C)cc(-c3nc4cc(N5CCN(C)CC5)ccc4[nH]3)cc2C(C)(C)C)nn1)C(=O)CCCOc1cccc(-c2nc3ccc(-c4nc5ccc(N6CCN(C)CC6)cc5[nH]4)cc3[nH]2)c1` gave a pIC50 in test [8] of 7.30.

In turn, `COc1ccc2nc3cc(Cl)ccc3c(NCCCCNc3nc(N)nc(N)n3)c2c1` gave a pKd in test [6] of 8.28. For the same molecule, the pIC50 in [9] is 4.82.

Consider `Cc1ccc2c(N)c(C(=O)Nc3cccc(C(F)(F)F)c3)sc2n1`, for which the pEC50 in test [10] was 4.55. This molecule also showed a pKd in [4] of 5.62.

`CN1CC/C(=N\c2ccc(C(=O)Nc3ccc(N=c4ccn(C)cc4)cc3)cc2)c2cc([N+](=O)[O-])ccc21`: the pIC50 in test [11] was 5.35.

Take `COc1cc2nc(N3CCNCC3)nc(N)c2cc1OC` [AMINODIMETHOXYQUINAZOLINYLPIPERAZINE]: the pKd in test [12] is 4.30.

For the molecule `CCN(CC)CCOc1ccc(/C(=C(/Cl)c2ccccc2)c2ccccc2)cc1` [ENCLOMIPHENE], the negative logarithm of the IC50 (pIC50) in [13] was 5.43. In addition, in test [7], the pEC50 is 5.37.

As for `CCN[C@@H]1C[C@H](N)[C@@H](O[C@H]2OC(CN)=CC[C@H]2N)[C@H](O)[C@H]1O[C@H]1OC[C@](C)(O)[C@H](NC)[C@H]1O` [NETILMICIN], in [14], the inhibition stood at 81%. In addition, in test [15], the pIC50 is 4.64. Besides, the pKd in [4] is 5.87.
